The values below come from PMC11371747, “The role of l-leucovorin uptake and metabolism in the modulation of 5-fluorouracil efficacy and antifolate toxicity” (Frontiers in Pharmacology, 2024).

One test deals with T1, folate receptor α (FRα) (Homo sapiens, UniProt P15328).
T1 construct: endogenous in cells; host or cells: KB cells (FRα++)
As to the kind of experiment: Intact cell competitive binding assay, displacement of [3H]-folic acid from FRα in KB cells. A general note: In a radioligand displacement assay an active substance lowers the binding of a labelled ligand.

For test [1], the target named is T2, reduced folate carrier (RFC/SLC19A1) (Homo sapiens, UniProt P41440).
T2 construct: CEM-7A cells, which display 30-fold RFC overexpression relative to wild-type CCRF-CEM cells; endogenous in cells; host or cells: CEM-7A (CCRF-CEM variant, RFC+++ 30-fold)
T2 sequence (P41440 1-591): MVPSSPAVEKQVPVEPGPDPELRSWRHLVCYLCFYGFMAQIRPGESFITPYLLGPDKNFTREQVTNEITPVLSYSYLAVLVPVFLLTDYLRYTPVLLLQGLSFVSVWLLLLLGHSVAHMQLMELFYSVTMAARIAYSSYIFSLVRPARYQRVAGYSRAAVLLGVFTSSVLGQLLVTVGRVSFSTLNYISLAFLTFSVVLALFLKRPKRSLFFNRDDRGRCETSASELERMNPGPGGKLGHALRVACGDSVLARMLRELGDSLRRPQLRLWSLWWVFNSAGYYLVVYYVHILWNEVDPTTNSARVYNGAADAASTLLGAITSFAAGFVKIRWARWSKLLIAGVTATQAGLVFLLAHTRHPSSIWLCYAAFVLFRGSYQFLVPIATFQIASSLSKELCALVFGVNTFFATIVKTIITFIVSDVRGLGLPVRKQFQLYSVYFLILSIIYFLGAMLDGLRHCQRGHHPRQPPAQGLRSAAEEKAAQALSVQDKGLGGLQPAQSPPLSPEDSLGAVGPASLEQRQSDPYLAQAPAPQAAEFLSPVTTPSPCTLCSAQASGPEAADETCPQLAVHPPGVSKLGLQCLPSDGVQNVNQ
The test is described as follows: Inhibition of RFC-mediated [3H]-l-LV influx in CEM-7A cells. It counts as cell-based.

The test system of another test is H28 cells. The test is described as follows: Growth inhibition, SRB assay, H28 (MPM). It counts as cell-based, human. The settings on record: for IC50: H28, SRB, read-out: IC50, 72 h drug exposure. As for the experimental part:
(§1) Briefly, cells were seeded in triplicate in 96-well plates at their pre-established optimal density (CHO cells: 2,500 cells/100 μL; WiDr and HT29: 3,500 cells/100 μL; WiDr-LF/LV, LS174T: 5,000 cells/100 μL; CaCo2, CaCo2-LF/LV, H292, H28 and MSTO-211H: 6,000 cells/100 μL; H460, SW948 and SW1398: 7,000 cells/100 μL) and were allowed to attach for ∼ 24 h at 37°C in 5% CO2 and 100% humidified incubator. Thereafter, 100 μL of drug dilution without LV, or with 5 μM l-LV/5 μM d-LV/10 μM dL-LV (or any LV alone) were added. Cells were allowed to grow for 72 h at 37°C in 5% CO2 and 100% humidity. The t = 0 h control plate consisted of cells plated on the same day as the other cells, but after 24 h at 37°C in 5% CO2 and 100% humidity, only 100 μL medium was added and the cells were fixed immediately with 50% trichloroacetic acid (TCA) in milliQ water (25 μL per well) and put at 4°C for at least 1 h. Plates were washed five times with water and dried. Cells were stained with the SRB protein dye (0.4% (w/v) in 1% acetic acid. Excess dye was washed away four times with 1% acetic acid and plates were dried again. 200 μL of Tris (10 mM Tris (hydroxymethyl)-aminomethane in MQ) was added and optical density (OD) was read at 492 nm after mixing 2–3 min on a plate shaker.
Background: In SRB staining, fixed cells bind dye roughly in proportion to their protein.

In the next test the test system is H292 cells. As to the kind of experiment: Growth inhibition, SRB assay, H292 (NSCLC). It counts as cell-based, human. The settings on record: for IC50: H292, SRB, read-out: IC50, 72 h drug exposure. As for the experimental part: as §1
For another test, the system named is CHO/C5-MOCK cells. The test is described as follows: Growth inhibition, SRB assay, CHO/C5-MOCK (empty vector). It counts as cell-based, Chinese hamster. As for the experimental part: as §1
For the next test, the system named is CHO/C5-PCFT cells. As to the kind of experiment: Growth inhibition, SRB assay, CHO/C5-PCFT (PCFT-transfected). It counts as cell-based, Chinese hamster. As for the experimental part: as §1
The next test has as its system CHO/C5-hRFC cells. As to the kind of experiment: Growth inhibition, SRB assay, CHO/C5-hRFC (human RFC transfected). It counts as cell-based, Chinese hamster. The settings on record: CHO/C5-hRFC. As to the method: as §1
The mark [2] stands for this setting: Cricetulus griseus, antifolate alone.

Where two headings read alike, the source gives them in different places. A value given as a limit tells only on which side of the number the result lay.

T1 sequence (P15328 25-257): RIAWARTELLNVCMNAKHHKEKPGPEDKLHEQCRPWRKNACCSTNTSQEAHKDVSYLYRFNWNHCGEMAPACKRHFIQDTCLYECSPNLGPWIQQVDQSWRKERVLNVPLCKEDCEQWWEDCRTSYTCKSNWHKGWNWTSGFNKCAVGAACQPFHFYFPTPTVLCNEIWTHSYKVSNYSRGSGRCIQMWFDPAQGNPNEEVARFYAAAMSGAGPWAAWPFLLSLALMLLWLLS

As for `C#CCC(Cc1cnc2nc(N)nc(N)c2n1)c1ccc(C(=O)N[C@@H](CCC(=O)O)C(=O)O)cc1` (stereo partly drawn) [PLX, pralatrexate], on folate receptor α (FRα), the “Molar excess over folic acid required for displacement of [3H]-FA binding from FRα” value is listed as greater than 100 fold. Also, on folate receptor α (FRα) (100 pmol [3H]-FA, inverse ratio of amount of drug displacing 50% of [3H]-FA, FA set to 1), the “Relative affinity for FRα” value is given as 0.0035. Moreover, in test [1], the “50% inhibition of [3H]-l-LV influx (RFC), fold lower concentration than l-LV” value amounted to 2.5 fold. In addition, the IC50 in the test on H28 cells (antifolate + 5 µM l-LV) was 14.6 µM; in the test on H28 cells (Homo sapiens, NCI-H28, 72 h, antifolate alone), 0.011 ± 0.0006 µM; in the test with H292 cells (antifolate + 5 µM l-LV), 19.1 µM; with H292 cells (Homo sapiens, NCI-H292, 72 h, antifolate alone), 0.0037 ± 0.0003 µM; in the test on CHO/C5-MOCK cells (setting [2]) it was 13.1 µM; with CHO/C5-MOCK cells (antifolate + 5 µM l-LV) it was greater than 100 µM. For the same compound, the IC50 was 6.8 µM in the test on CHO/C5-PCFT cells (setting [2]), 87.5 µM in the test with CHO/C5-PCFT cells (antifolate + 5 µM l-LV), 0.9 µM in the test on CHO/C5-hRFC cells (antifolate + 5 µM l-LV) and 0.0038 µM in the test with CHO/C5-hRFC cells (setting [2]). Besides, the “Relative protection by 5 µM l-LV” value is on record as 1834 ± 108 in the test on H28 cells (H28, ratio IC50 antifolate + LV / IC50 antifolate) and 4,778 ± 1795 with H292 cells (H292, ratio IC50 antifolate + LV / IC50 antifolate).

What is called IC50 is the concentration that gives 50% inhibition.
